# Patent publication US20060116423A1, “Methods and compositions for treatment of central nervous system injury with isothiocyanates” (priority 2004, published 2006)
# Tests used:
# [1] = tested on: blood-brain barrier; experiment: Blood-brain barrier integrity by Evan's blue dye extravasation after cortical impact injury; type: in vivo, rat; settings: for blood-brain barrier permeability (Evans Blue extravasation): measured 24 h after TBI, vs vehicle
# Procedure: Blood-brain barrier integrity was assessed using extravagation of Evan's blue (EB) dye. When injected through the jugular vein of normal animals, EB is not detected in the nervous tissue. However, if the blood-brain barrier is compromised, EB can be detected in nervous tissues. The amount of EB can be quantified by extracting the dye from the tissue followed by spectrophotometric analysis at 610 nm wavelength. One and one-half hours prior to the above time points, animals were anesthetized and injected with 3% EB in saline (4 ml/kg) through the jugular vein. Animals were transcardially perfused with phosphate-buffered saline (PBS) until the out-coming liquid was clear followed by 4% paraformaldehyde (400 ml). The brain was removed and 2 mm-thick sections were prepared and incubated with 3 ml of 99.5% formamide in a 60° C. water bath for 24 hr. At the end of the incubation, tissues were removed and the formamide solution was centrifuged in an Eppendorf centrifuge at 12,000 rpm for 20 min. The supernatant solution was collected and the optical density at 610 nm was measured to determine the relative amount of EB dye in each sample.
# [2] = tested on: brain injured rats; settings: 5 mg/kg i.p. 6 hr post-injury, P<0.05 vs vehicle
# Source text: This model utilizes a pneumatic piston to deform a controllable volume of exposed cortex over a range of impact velocities. All protocols were in compliance with NIH's Guide for the Care and Use of Laboratory Animals and approved by the Institutional Animal Care and Use Committee. A controlled cortical impact device was used to cause brain trauma as previously described^6,7,26. Rats were anesthetized using 5% isoflurane with a 1:1 N2O:O2 mixture. The animals were then maintained with a 2% isoflurane/2:1 N2O:O2 mixture, via a face mask. Animals were mounted in the injury device stereotaxic frame secured by ear bars and an incisor bar. The head was held in a horizontal plane with respect to the interaural line. A midline incision was made, the soft tissues reflected, and bilateral 6 mm craniectomies were made midway between the bregma and lambda with the medial edge of each craniectomy 1 mm lateral to midline. Rats received a single impact at 1.8 mm deformation with an impact velocity of 6 m/sec at an angle of 20° from the vertical plane. Core body temperature was maintained at 37-38° C. by use of a rectal thermometer coupled to a heating pad. Sham rats were anesthetized and received craniectomies but were not cortically impacted. After injury or sham operation, the scalp was sutured and the animal placed in an oxygenated chamber and monitored during recovery. […]
# [3] = tested on: brain swelling (edema); settings: P<0.05 vs vehicle
# Source text: (§1) This model utilizes a pneumatic piston to deform a controllable volume of exposed cortex over a range of impact velocities. All protocols were in compliance with NIH's Guide for the Care and Use of Laboratory Animals and approved by the Institutional Animal Care and Use Committee. A controlled cortical impact device was used to cause brain trauma as previously described^6,7,26. Rats were anesthetized using 5% isoflurane with a 1:1 N2O:O2 mixture. The animals were then maintained with a 2% isoflurane/2:1 N2O:O2 mixture, via a face mask. Animals were mounted in the injury device stereotaxic frame secured by ear bars and an incisor bar. The head was held in a horizontal plane with respect to the interaural line. A midline incision was made, the soft tissues reflected, and bilateral 6 mm craniectomies were made midway between the bregma and lambda with the medial edge of each craniectomy 1 mm lateral to midline. Rats received a single impact at 1.8 mm deformation with an impact velocity of 6 m/sec at an angle of 20° from the vertical plane. Core body temperature was maintained at 37-38° C. by use of a rectal thermometer coupled to a heating pad. Sham rats were anesthetized and received craniectomies but were not cortically impacted. After injury or sham operation, the scalp was sutured and the animal placed in an oxygenated chamber and monitored during recovery. All rats were allowed to completely recover from the anesthesia after the surgery in a warm chamber before being sent back to the home cages. The type of brain trauma employed in this study produces both motor and cognitive deficits similar to those seen in human patients^6.
# [4] = tested on: brain injured rats
# Source text: as §1
# [5] = tested on: AQP4 mRNA; settings: 5 mg/kg i.p.; 24 hr post-administration; cortical tissue; vehicle 100.00±18.16%; mean±S.E.M., n=3; P<0.05
# Procedure: Animals were killed and parietal cortical tissues were quickly dissected out and frozen in dry ice. The frozen tissue was homogenized in 1.5ml of TriZol (Invitrogen) per 100 mg tissue, followed by addition of chloroform (1:5) and incubation on ice for 20 min. The homogenate was centrifuged at 14,000×g for 30 min, and total RNA was precipitated by isopropanol. 1.0 jig total RNA was reverse transcribed for 2 hours at 37° C. in a 20μl mixture containing 50 mM Tris-HCl pH 8.3, 75 mM KCl, 3.0 mM MgCl2, 10 mM DTT, 2.5 μM random hexamer, 1.0 mM each dNTP, 20 U RNasin, and 200 U Superscript II reverse transcriptase. The level of expression of each target gene was quantified using a BioRad iCycler real-time PCR system (BioRad, Hercules, CA). Reactions were carried out in triplicate. Each 30 μl reaction mixture consisted of 1.5 μl of the cDNA and 18 mM Tris-HCl pH 8.3, 55 mM KCl, 2.0 mM MgCl2, 0.2 mM of each dNTP, 0.5μM of each primer, 10 nM fluorescein, 1:75,000 dilution of Sybr green I, and 2 U AmpliTaq DNA polymerase. […] The resultant data was analyzed using the iCycler iQ Real-Time Detection System software^33.
# To assess the ability of SUL to induce AQP4 expression, rats were intraperitonealy injected with either 5 mg/kg SUL prepared in corn oil or equal volume of vehicle. […] AQP4 mRNA levels were evaluated using real-time PCR. […]
# [6] = tested on: focal cerebral ischemia (CCA/MCA occlusion); settings: 5 mg/kg i.p. 15 minutes after onset of ischemia; 3 hours CCA/MCA occlusion; three days following ischemia; vehicle 153.87±11.01 mm^3; P<0.05
# Procedure: Focal ischemia was induced by temporary left common carotid/middle cerebral artery (CCA/MCA) occlusion^1,41. Briefly, rats were anesthetized with chloral hydrate (0.45 g/kg IP). Core body temperature was maintained at 36.5±0.5° C. during ischemia The ipsilateral CCA was isolated and tagged through a ventral, cervical midline incision. A 0.005-inch-diameter stainless steel wire (Small Parts Inc) was placed underneath the left MCA rostral to the rhinal fissure, proximal to the major bifurcation of the MCA, and distal to the lenticulostriate arteries. The artery was then lifted, and the wire was rotated clockwise to ensure occlusion. The CCA was next occluded with an atraumatic aneurysm clip. Cerebral perfusion at the cortical surface, 3 mm distal to the locus of the MCA occlusion, was measured with a laser-Doppler flowmeter (LDF) (model BPM2, Vesamedic). […] After 180 minutes of MCA/CCA occlusion, reperfusion was established by reversing the occlusion procedure. […]
# Morphometric determination of infarct volume was obtained with the help of a computer-based image analyzer operated by Brain software (Drexel University). […] The infarct volume (mm^3) was calculated from the difference between the volume of contralateral cortex and the volume of the TTC-stained (nonischemic) portion of ipsilateral cortex of each rat. […]
# [7] = tested on: endothelial barrier antigen (EBA); settings: 5 mg/kg and 20 mg/kg i.p. at 6 h after injury; samples at 24 h; cortices ipsilateral to injury; P<0.05 vs vehicle
# Source text: as §1
# (§2) Rats were killed and brains were removed quickly and dip-frozen in −80° C. isopentane for 20 sec.
# [8] = tested on: rat endothelial cell antigen (RECA); settings: 5 mg/kg and 20 mg/kg i.p. at 6 h after injury; samples at 24 h; cortices ipsilateral to injury; P<0.05 vs vehicle
# Source text: as §1, §2
# [9] = tested on: tight junction proteins (claudin-5, occludin, ZO-1); settings: administration six hours after injury; P<0.05 vs injury+vehicle
# Source text: as §1, §2
# [10] = tested on: von-Willebrand factor (vWF); settings: administration six hours after injury; vs injury+vehicle
# Source text: as §1, §2
# [11] = tested on: aquaporin-4 (AQP4)
# Source text: as §1, §2
# [12] = tested on: glial fibrilary acidic protein (GFAP); settings: 24 hr after injury; vehicle vs SUL-treated animals
# Source text: as §1, §2
# [13] = tested on: cortical cultures; settings: pretreatment prior to hydrogen peroxide or glutamate exposure; in vitro; cited from earlier work
smiles,measurement,setting,value
S=C=NCCc1ccccc1 [phenylethyl isothiocyanate],blood-brain barrier permeability (Evans Blue extravasation),[1]; 4.6 mg/kg i.p. 6 hr after brain trauma,decreased blood-brain barrier permeability
C=CCN=C=S [allyl isothiocyanate],blood-brain barrier permeability (Evans Blue extravasation),[1]; 2.8 mg/kg i.p. 6 hr after brain trauma,decreased blood-brain barrier permeability
C[S@@+]([O-])CCCCN=C=S [sulforaphane],extinction of fear memory (freezing during extinction training),"[2]; extinction on day 23 post-injury, n=8",Extinction was more rapid
same,memory for the extinction event (freezing to the tone),"[2]; tested 48 hr following extinction training, 3 tone presentations",reduced freezing to the tone
same,difference in brain water content between injured and uninjured hemispheres,"[3]; 5 mg/kg ip at 15 min and at 6 hr after injury, measured at 3 day following injury",significantly decreases the difference in brain water content
same,brain water content (difference in percent water content between injured and uninjured hemispheres),"[3]; 5 mg/kg ip at 15 min and at 6 hr following injury, measured 24 hr following injury",decreases brain water content
same,increase in brain water content (difference between injured and uninjured hemispheres),"[3]; delayed administration, 5 mg/kg ip at 6 hr after injury, measured at 3 days after injury",significantly reduces the increase in brain water content
same,spatial learning and memory (latency to find the hidden platform),"[4]; 5 mg/kg 6 hr post-injury, days 14-18 post-injury, n=9, P<0.05 vs vehicle",improved spatial learning and memory
same,"working memory: latency to hidden platform, match trial vs location trial","[4]; 5mg/kg i.p. 6 hr post-injury, tested day 21 post-injury, n=8, P<0.05",find the hidden platform significantly faster during the match trial
same,AQP4 mRNA level,[5],289.76±16.52%
same,total infarct volume,[6],100.52±16.35 mm^3
same,"EBA staining, integrated fluorescent intensity",[7],significantly improves
same,"RECA staining, integrated fluorescent intensity",[8],significantly improves
same,"tight junction protein levels (claudin-5, occludin, ZO-1 immunoreactivity)",[9],significantly attenuated the loss
same,vWF levels (immunoreactivity),[10],partially restored
same,AQP4 immuno-fluorescence intensity in the injury core,"[11]; 5 mg/kg i.p. at 6 hr after injury, 24 hr after injury, mean±S.E.M., n=4, injury-vehicle 13.79±2.22%, P<0.05",35.25±3.13%
same,AQP4 levels (fluorescence intensity) in the penumbra region,"[11]; post-injury administration, at both 24 hr and 3 days following injury, P<0.05 vs vehicle",significantly increased
same,GFAP immunoreactivity in the penumbra region,[12],lack of difference
same,neuroprotection of cortical cultures,[13],robust neuroprotection
same,blood-brain barrier permeability (Evans Blue extravasation),[1]; 5 mg/kg i.p. 6 hr after brain trauma,decreased blood-brain barrier permeability
same,Evan's blue dye extravasation into brain tissue (OD at 610 nm),"[1]; 5 mg/kg i.p. at 6 h after TBI, 24 hr and 72 hr time points, ipsilateral side, P<0.05 vs vehicle",significantly attenuate dye extravasation
same,extravasation of Evan's Blue dye,"[1]; oral 60 mg/kg/day for one or four days, day one given 6 hr following brain injury, P<0.05 vs vehicle",effective in decreasing the extravasation of Evan's Blue dye
